Test results as given in ChEMBL document CHEMBL5291721, “A preclinical secondary pharmacology resource illuminates target-adverse drug reaction associations of marketed drugs” (Nat Commun, 2023).

Experiments:
Motilin receptor = Motilin receptor (Homo sapiens, UniProt O43193)
[1] = target: Glutamate receptor ionotropic, NMDA 1 (Rattus norvegicus, UniProt P35439)
[2] = target: T1, Neuropeptide Y receptor type 1 (Homo sapiens, UniProt P25929)
T1 sequence (P25929 whole entry): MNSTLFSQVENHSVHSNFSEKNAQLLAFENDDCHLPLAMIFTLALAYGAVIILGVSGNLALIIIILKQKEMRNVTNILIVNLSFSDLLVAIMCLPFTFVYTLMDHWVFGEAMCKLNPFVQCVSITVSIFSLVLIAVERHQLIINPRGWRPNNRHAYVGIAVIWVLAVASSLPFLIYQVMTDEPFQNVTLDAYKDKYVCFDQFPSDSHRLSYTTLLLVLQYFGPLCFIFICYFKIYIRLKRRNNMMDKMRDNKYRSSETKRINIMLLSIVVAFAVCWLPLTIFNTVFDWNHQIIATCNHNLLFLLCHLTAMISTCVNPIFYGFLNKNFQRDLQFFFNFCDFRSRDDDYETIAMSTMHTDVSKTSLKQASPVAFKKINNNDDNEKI

[3] = target: T2, Equilibrative nucleoside transporter 1 (Homo sapiens, UniProt Q99808)
T2 sequence (Q99808 whole entry): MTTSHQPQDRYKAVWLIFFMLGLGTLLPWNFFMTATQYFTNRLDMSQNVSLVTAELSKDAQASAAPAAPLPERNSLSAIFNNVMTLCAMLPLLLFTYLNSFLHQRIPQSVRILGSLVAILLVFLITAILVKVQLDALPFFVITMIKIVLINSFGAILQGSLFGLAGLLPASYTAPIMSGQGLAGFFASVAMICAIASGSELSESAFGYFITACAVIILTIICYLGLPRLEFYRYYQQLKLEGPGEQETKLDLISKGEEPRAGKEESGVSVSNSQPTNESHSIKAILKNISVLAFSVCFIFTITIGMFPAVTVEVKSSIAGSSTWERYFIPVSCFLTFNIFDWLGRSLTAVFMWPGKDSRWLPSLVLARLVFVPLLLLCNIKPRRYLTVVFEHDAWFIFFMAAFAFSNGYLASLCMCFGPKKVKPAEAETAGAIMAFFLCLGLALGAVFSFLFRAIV

Vasopressin V1a receptor = Vasopressin V1a receptor (Homo sapiens, UniProt P37288)
[4] = target: 5-hydroxytryptamine receptor 2A (Homo sapiens, UniProt P28223); assay type: functional, cell-based
[5] = target: Sodium-dependent serotonin transporter (Homo sapiens, UniProt P31645)
[6] = target: Delta-type opioid receptor (Homo sapiens, UniProt P41143)
Endothelin-1 receptor = target: T3, Endothelin-1 receptor (Homo sapiens, UniProt P25101)
T3 sequence (P25101 whole entry): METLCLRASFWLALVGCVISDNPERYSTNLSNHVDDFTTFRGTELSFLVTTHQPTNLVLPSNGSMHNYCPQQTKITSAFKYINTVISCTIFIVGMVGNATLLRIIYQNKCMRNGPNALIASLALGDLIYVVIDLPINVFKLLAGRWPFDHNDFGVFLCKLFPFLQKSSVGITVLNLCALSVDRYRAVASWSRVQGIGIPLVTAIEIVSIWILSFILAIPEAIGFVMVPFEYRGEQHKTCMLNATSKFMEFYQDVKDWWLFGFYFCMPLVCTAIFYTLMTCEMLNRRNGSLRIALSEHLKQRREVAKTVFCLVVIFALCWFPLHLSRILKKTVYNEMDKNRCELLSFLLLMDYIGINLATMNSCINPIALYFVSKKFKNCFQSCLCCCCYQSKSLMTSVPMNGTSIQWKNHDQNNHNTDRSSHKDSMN

Glucocorticoid receptor = target: T4, Glucocorticoid receptor (Homo sapiens, UniProt P04150)
T4 sequence (P04150 whole entry): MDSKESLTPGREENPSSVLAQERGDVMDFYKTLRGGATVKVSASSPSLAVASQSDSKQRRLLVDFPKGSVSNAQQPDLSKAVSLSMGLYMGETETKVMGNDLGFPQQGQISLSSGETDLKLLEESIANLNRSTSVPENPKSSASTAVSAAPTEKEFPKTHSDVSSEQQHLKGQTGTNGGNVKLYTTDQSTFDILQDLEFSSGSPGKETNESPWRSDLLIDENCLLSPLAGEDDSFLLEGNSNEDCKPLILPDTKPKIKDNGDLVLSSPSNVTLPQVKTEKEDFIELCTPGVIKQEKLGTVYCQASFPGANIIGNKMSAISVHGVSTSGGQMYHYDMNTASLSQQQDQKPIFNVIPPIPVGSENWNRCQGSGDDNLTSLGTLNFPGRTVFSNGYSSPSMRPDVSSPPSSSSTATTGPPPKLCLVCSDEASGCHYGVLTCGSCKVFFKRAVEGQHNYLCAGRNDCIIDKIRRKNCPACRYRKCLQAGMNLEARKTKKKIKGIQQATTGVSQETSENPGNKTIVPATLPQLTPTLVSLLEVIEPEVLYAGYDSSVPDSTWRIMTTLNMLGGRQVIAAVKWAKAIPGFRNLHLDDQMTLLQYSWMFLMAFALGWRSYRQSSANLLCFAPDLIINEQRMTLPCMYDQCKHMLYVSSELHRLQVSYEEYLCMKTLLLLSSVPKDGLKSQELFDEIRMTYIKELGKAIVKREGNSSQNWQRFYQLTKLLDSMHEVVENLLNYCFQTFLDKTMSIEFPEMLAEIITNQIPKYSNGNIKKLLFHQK

[7] = target: Voltage-gated inwardly rectifying potassium channel KCNH2 (Homo sapiens, UniProt Q12809); assay type: functional; settings: read-out: AC50
[8] = target: 5-hydroxytryptamine receptor 2B (Homo sapiens, UniProt P41595); assay type: functional, cell-based
[9] = target: T5, Type-1 angiotensin II receptor (Homo sapiens, UniProt P30556)
T5 sequence (P30556 whole entry): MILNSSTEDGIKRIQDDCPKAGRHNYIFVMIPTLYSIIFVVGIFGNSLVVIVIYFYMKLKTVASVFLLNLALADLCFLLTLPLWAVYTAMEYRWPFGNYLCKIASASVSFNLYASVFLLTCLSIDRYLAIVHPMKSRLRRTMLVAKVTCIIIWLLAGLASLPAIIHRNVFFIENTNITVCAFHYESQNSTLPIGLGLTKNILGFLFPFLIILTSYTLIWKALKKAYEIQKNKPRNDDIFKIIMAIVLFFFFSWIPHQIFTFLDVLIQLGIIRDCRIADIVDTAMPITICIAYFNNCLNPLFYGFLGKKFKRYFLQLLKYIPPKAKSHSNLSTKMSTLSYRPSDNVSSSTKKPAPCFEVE

[10] = target: Voltage-dependent L-type calcium channel subunit alpha-1C (Rattus norvegicus, UniProt P22002); assay type: functional
Further: assay procedure not described here.

Sequence of 5-hydroxytryptamine receptor 2B (P41595 whole entry): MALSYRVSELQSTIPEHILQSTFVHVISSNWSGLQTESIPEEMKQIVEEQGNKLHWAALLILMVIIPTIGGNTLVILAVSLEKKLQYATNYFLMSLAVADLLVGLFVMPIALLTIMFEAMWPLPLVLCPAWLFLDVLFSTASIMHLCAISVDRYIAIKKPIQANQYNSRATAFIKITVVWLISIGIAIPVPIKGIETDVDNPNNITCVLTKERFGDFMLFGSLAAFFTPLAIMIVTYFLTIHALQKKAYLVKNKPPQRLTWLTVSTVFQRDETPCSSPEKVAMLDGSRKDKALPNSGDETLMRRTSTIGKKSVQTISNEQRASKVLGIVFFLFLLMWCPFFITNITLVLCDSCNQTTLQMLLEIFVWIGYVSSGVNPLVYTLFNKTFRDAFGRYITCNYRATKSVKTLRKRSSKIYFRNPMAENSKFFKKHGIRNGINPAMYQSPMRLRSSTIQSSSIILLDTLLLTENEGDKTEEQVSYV
Sequence of Vasopressin V1a receptor (P37288 whole entry): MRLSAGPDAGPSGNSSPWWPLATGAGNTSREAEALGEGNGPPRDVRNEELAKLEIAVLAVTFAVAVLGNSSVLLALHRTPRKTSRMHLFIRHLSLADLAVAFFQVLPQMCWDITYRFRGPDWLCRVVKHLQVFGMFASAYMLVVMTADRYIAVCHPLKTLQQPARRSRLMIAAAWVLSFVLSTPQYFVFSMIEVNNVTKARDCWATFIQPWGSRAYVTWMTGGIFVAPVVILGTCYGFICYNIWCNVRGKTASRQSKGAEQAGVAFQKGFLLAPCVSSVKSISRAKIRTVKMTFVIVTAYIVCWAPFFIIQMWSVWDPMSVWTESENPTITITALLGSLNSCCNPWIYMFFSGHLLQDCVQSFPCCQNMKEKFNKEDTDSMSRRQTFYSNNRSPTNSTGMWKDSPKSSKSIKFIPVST
Sequence of Sodium-dependent serotonin transporter (P31645 whole entry): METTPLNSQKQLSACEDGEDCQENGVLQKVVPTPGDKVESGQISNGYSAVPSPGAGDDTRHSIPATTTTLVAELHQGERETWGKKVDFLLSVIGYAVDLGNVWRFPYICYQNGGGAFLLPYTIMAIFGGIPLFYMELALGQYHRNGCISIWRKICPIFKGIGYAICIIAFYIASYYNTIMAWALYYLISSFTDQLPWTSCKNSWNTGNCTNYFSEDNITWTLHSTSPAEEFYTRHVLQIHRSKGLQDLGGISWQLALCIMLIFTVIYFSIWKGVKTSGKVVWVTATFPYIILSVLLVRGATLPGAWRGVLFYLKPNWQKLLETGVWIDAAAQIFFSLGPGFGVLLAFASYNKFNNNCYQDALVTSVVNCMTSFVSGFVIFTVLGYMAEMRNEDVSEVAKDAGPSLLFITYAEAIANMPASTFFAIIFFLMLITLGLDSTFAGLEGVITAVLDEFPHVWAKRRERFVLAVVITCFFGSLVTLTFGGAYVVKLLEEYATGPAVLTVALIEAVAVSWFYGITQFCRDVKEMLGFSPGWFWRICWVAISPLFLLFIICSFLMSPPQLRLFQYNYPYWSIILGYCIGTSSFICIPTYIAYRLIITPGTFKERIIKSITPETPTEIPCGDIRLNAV
Sequence of Voltage-gated inwardly rectifying potassium channel KCNH2 (Q12809 whole entry): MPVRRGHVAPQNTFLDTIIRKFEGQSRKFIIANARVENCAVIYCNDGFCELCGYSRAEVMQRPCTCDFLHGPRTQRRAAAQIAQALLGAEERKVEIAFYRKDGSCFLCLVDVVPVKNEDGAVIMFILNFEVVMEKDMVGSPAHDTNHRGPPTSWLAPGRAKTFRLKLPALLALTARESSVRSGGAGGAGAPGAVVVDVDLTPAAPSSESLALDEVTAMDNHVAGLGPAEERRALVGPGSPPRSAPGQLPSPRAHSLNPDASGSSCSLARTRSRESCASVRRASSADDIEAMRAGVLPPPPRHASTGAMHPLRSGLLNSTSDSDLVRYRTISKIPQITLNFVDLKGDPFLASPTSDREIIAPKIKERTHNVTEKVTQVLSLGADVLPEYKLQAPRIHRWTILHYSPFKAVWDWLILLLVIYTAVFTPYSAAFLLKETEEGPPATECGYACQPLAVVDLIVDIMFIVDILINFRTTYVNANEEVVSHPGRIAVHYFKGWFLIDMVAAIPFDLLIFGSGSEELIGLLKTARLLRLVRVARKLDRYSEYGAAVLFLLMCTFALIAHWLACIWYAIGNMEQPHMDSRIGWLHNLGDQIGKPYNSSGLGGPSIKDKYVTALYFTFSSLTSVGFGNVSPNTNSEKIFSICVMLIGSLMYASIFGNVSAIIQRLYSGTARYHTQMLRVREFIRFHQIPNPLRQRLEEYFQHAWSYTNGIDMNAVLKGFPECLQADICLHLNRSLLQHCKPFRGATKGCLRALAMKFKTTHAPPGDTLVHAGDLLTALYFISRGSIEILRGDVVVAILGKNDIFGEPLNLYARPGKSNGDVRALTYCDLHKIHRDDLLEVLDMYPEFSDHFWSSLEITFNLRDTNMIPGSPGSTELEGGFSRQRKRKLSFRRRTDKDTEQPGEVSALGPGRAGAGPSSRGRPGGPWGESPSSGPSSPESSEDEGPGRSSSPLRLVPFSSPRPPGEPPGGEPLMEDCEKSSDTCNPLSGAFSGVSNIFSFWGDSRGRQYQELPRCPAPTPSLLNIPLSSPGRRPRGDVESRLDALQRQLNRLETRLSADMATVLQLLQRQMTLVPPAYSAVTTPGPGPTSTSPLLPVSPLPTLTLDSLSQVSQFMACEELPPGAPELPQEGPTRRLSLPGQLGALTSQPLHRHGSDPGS
Sequence of Delta-type opioid receptor (P41143 whole entry): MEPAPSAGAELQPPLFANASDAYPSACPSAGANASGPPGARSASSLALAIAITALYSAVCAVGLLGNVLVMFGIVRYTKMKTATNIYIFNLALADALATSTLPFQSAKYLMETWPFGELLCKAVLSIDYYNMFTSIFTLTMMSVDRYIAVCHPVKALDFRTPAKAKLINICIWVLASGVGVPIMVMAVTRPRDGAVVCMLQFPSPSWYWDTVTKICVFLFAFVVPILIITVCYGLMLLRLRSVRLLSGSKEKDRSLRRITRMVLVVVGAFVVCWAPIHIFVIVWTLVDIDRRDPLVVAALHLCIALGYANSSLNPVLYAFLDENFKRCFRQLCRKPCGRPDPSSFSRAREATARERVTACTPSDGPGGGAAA
Sequence of 5-hydroxytryptamine receptor 2A (P28223 whole entry): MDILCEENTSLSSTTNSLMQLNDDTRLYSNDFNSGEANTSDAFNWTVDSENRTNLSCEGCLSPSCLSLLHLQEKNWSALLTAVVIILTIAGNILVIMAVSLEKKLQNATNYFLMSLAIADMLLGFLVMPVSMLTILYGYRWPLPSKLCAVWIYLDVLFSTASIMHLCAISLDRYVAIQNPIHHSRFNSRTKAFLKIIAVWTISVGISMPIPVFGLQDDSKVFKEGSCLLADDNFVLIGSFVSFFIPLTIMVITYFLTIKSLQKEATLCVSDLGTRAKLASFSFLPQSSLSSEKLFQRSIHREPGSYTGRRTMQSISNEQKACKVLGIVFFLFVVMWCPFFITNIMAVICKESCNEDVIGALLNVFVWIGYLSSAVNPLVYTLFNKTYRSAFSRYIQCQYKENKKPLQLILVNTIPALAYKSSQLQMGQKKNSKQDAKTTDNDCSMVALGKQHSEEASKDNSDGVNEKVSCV
Sequence of Motilin receptor (O43193 whole entry): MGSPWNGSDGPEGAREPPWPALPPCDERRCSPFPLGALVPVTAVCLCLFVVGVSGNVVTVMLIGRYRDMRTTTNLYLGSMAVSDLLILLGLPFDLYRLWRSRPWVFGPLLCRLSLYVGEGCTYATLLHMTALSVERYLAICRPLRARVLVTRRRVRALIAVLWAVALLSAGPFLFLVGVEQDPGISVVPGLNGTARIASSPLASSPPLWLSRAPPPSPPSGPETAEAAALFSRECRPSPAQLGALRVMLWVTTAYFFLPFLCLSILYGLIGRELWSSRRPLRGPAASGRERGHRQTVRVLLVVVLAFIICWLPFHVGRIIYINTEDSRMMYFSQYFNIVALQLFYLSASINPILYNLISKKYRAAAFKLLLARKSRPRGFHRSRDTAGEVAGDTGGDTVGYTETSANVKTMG

Compound	AC50 (Motilin receptor) [µM]	AC50 [1] [µM]	AC50 [2] [µM]	AC50 [3] [µM]	AC50 (Vasopressin V1a receptor) [µM]	AC50 [4] [µM]	AC50 [5] [µM]	AC50 [6] [µM]	AC50 (Endothelin-1 receptor) [µM]	AC50 (Glucocorticoid receptor) [µM]	AC50 [7] [µM]	AC50 [8] [µM]	AC50 [9] [µM]	AC50 [10] [µM]
CCN(CC)CCOC(=O)c1ccc(N)cc1Cl [CHLOROPROCAINE]	> 30	> 30	> 30	> 30	> 30	> 30	> 30	> 30	> 30	> 30	11	> 30	> 30	
CC(=O)OCC(=O)[C@@]1(O)CC[C@H]2[C@@H]3CCC4=CC(=O)CC[C@]4(C)C3=CC[C@@]21C [ANECORTAVE ACETATE]	> 10	> 10	> 10	> 10	> 10	> 10	> 10	> 30		1.7	> 30	> 10	> 10	> 10
C=CC(N)CCC(=O)O (stereo not drawn) [VIGABATRIN]	> 10	> 10	> 10	> 30	> 10	> 10	12.2	> 30		> 10	> 30	> 10	> 10	> 10
COC(=O)N[C@@H](C)CNc1nccc(-c2cn(C(C)C)nc2-c2cc(Cl)cc(NS(C)(=O)=O)c2F)n1 [ENCORAFENIB]	> 30	> 30	> 30	25.9	> 30	> 30	> 30	> 30		> 30	> 30	> 30	> 30	> 30
CCCC[C@H](C)C[C@H](O)/C=C/[C@H]1[C@H](O)CC(=O)[C@@H]1CCCC/C=C/C(=O)O [LIMAPROST]	> 30	> 30	> 30	> 30	> 30	> 30	> 30	> 30	> 30	> 30	> 30	> 30	> 30	
Nc1nc(F)nc2c1ncn2[C@@H]1O[C@H](COP(=O)(O)O)[C@@H](O)[C@@H]1O [FLUDARABINE PHOSPHATE]	> 30	> 30	> 30	> 30	> 30	> 30	> 30	> 30		> 30	> 30	> 30	> 30	> 30
CCOC(=O)Nc1ccc2c(c1)N(C(=O)CCN1CCOCC1)c1ccccc1S2 [MORICIZINE]	> 30	> 30	> 30	> 30	> 30	> 30	> 30	> 30	> 30	> 30	19	> 30	> 30	
CCCCC1(CC)C(=O)NC(=O)NC1=O [BUTETHAL]	> 30	> 30	> 30	> 30	> 30	> 30	> 30	> 30	> 30	> 30	> 30	> 30	> 30	
CC(=O)O[C@H]1C[C@@H]2CC[C@@H]3[C@H](CC[C@@]4(C)[C@H]3C[C@H]([N+]3(C)CCCCC3)[C@@H]4OC(C)=O)[C@@]2(C)C[C@@H]1[N+]1(C)CCCCC1 [PANCURONIUM]	> 10	> 10	> 10	> 10	> 10	> 10	> 10	> 30		> 10	1.26	> 10	> 10	> 10
COc1cc2c(Nc3ccc(Br)cc3F)ncnc2cc1OCC1CCN(C)CC1 [VANDETANIB]	> 30	> 30	> 30	> 30	> 30	14	3.4	> 30	> 30	> 30		> 30	> 30	
Cc1ccc(NC(=O)C2(c3ccc4c(c3)OC(F)(F)O4)CC2)nc1-c1cccc(C(=O)O)c1 [LUMACAFTOR]	> 30	> 30	> 30	> 30	> 30	> 30	> 30	> 30	> 30	> 30	> 30	> 30	> 30	
COCCOC(=O)C1=C(C)NC(C)=C(C(=O)OC/C=C/c2ccccc2)C1c1cccc([N+](=O)[O-])c1 (stereo not drawn) [CILNIDIPINE]	24	> 30	> 30	26	> 30	> 30	> 30	> 30	> 30	6.5	> 30	> 30	> 30	
NC(=O)CCC/N=C(\c1ccc(Cl)cc1)c1cc(F)ccc1O [PROGABIDE]	> 10	> 10	> 10	> 10	> 10	> 10	> 10	> 30		> 10	> 30	> 10	> 10	> 10
